Measurements as given in ChEMBL document CHEMBL5154904, “Discovery and Structural Basis of the Selectivity of Potent Cyclic Peptide Inhibitors of MAGE-A4” (J Med Chem, 2022).
Numbering of substitutions follows the chain as printed. The source made the active and inactive calls. No cut-off for these calls is given here. Positions of bridges follow the written chain, without caps; N, C: chain ends. Residues, ends and D or L forms follow the SMILES beside them.

Tests used:
[1] = target: T1, Melanoma-associated antigen 4 (Homo sapiens, UniProt P43358); assay: Binding affinity to MAGEA4 (unknown origin) expressed in Escherichia coli BL21-(DE3) by isothermal titration calorimetry
T1 sequence (P43358 whole entry): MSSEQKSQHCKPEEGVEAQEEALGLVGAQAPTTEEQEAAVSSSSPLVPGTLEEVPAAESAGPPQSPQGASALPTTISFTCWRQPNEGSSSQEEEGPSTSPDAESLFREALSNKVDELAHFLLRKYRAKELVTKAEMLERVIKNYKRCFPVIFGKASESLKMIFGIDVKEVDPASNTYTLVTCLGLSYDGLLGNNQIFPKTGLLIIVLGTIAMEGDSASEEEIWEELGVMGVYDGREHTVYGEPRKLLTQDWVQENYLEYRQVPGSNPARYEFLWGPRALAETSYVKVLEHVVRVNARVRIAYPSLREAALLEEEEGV

[2] = tested on: T2, Melanoma-associated antigen 4 (Homo sapiens), P43358 [M161A]; assay: Binding affinity to recombinant N-terminal His-tagged MAGEA4-MH domain M161A mutant (unknown origin) expressed in Escherichia coli BL21-(DE3) assessed as increase in thermal stability by SYPRO orange dye based differential scanning fluorimetry; conditions: dose 10.0 µM
T2 sequence (whole entry): T1 sequence (P43358 whole entry) with M161A

[3] = tested on: T3, Melanoma-associated antigen 4 (Homo sapiens), P43358 [E225A]; assay: Binding affinity to recombinant N-terminal His-tagged MAGEA4-MH domain E225A mutant (unknown origin) expressed in Escherichia coli BL21-(DE3) assessed as increase in thermal stability by SYPRO orange dye based differential scanning fluorimetry; conditions: dose <= 10.0 µM
T3 sequence (whole entry): T1 sequence (P43358 whole entry) with E225A

[4] = tested on: T4, Melanoma-associated antigen 4 (Homo sapiens), P43358 [V228A]; assay: Binding affinity to recombinant N-terminal His-tagged MAGEA4-MH domain V228A mutant (unknown origin) expressed in Escherichia coli BL21-(DE3) assessed as increase in thermal stability by SYPRO orange dye based differential scanning fluorimetry; conditions: dose <= 10.0 µM
T4 sequence (whole entry): T1 sequence (P43358 whole entry) with V228A

[5] = tested on: T5, Melanoma-associated antigen 4 (Homo sapiens), P43358 [V291A]; assay: Binding affinity to recombinant N-terminal His-tagged MAGEA4-MH domain V291A mutant (unknown origin) expressed in Escherichia coli BL21-(DE3) assessed as increase in thermal stability by SYPRO orange dye based differential scanning fluorimetry; conditions: dose <= 10.0 µM
T5 sequence (whole entry): T1 sequence (P43358 whole entry) with V291A

[6] = tested on: T6, Melanoma-associated antigen 4 (Homo sapiens), P43358 [R297A]; assay: Binding affinity to recombinant N-terminal His-tagged MAGEA4-MH domain R297A mutant (unknown origin) expressed in Escherichia coli BL21-(DE3) assessed as increase in thermal stability by SYPRO orange dye based differential scanning fluorimetry; conditions: dose <= 10.0 µM
T6 sequence (whole entry): T1 sequence (P43358 whole entry) with R297A

Homo sapiens [7] = species on record: Homo sapiens; assay: Inhibition of Eu-W1024 streptavidin-labeled 6 xHis-tagged MAGEA4-MH domain M161A mutant (unknown origin) expressed in Escherichia coli BL21-(DE3) interaction with Ulight-labeled GST-tagged RAD18 (unknown origin) (267 to 402 residues) at 1 uM by LANCE TR-FRET assay
Homo sapiens [8] = species on record: Homo sapiens; assay: Inhibition of Eu-W1024 streptavidin-labeled 6 xHis-tagged MAGEA4-MH domain E225A mutant (unknown origin) expressed in Escherichia coli BL21-(DE3) interaction with Ulight-labeled GST-tagged RAD18 (unknown origin) (267 to 402 residues) at 1 uM by LANCE TR-FRET assay

Kd [1]: 36.8 nM
Tm [2]: < 3.5 °C
Tm [3]: < 3.5 °C
Tm [4]: < 3.5 °C
Tm [5]: < 3.5 °C
Tm [6]: < 3.5 °C
inhibition (Homo sapiens [7]): Active
inhibition (Homo sapiens [8]): Active
SMILES: CC[C@H](C)[C@@H]1NC(=O)[C@H](Cc2ccc(O)cc2)NC(=O)CSC[C@@H](C(N)=O)NC(=O)[C@H](CC(N)=O)NC(=O)[C@H](Cc2cnc[nH]2)NC(=O)[C@H](Cc2ccc(O)cc2)NC(=O)[C@H](CC(=O)O)NC(=O)[C@H](Cc2ccc(O)cc2)NC(=O)[C@H](CC(C)C)NC(=O)[C@H](CCCNC(=N)N)NC1=O ({CH2CO}-YIRLYDYHNC-NH2; thioether N-10)
